# Measured values: patent publication US20060019284A1, “Identification of polynucleotides for predicting activity of compounds that interact with and/or modulate protein tyrosine kinases and/or protein tyrosine kinase pathways in lung cancer cells” (priority 2004, published 2006)
# Legend:
# Sk-LU-1 lung cell line = assay: In vitro cytotoxicity assay (MTS), IC50 determination; type: cell-based, human; conditions: Sk-LU-1 cells
# Procedure: (§1) Cytotoxicity was assessed in cells by the MTS (3-(4,5-dimethylthiazol-2-yl)-5-(3-carboxy-methoxyphenyl)-2-(4-sulphenyl)-2H-tetrazolium, inner salt) assay (T. L. Riss et al., 1992, Mol. Biol. Cell, 3 (Suppl.): 184a).
# (§2) To carry out the assays, the lung cells were plated at 4,000 cells/well in 96 well microtiter plates, and 24 hours later, serially diluted drugs were added. The concentration range for the protein tyrosine kinase inhibitor compound BMS-A used in the cytotoxicity assay was from 5 μg/ml to 0.0016 μg/ml (roughly 10 μM to 0.0032 μM).
# (§3) The cells were incubated at 37° C. for 72 hours at which time the tetrazolium dye, MTS (333 μg/ml final concentration), in combination with the electron coupling agent phenazine methosulfate (25 μM final concentration), was added. A dehydrogenase enzyme in live cells reduces the MTS to a form that absorbs light and can be quantified spectrophotometrically at 492 nM. The greater the absorbency the greater the number of live cells. The results are expressed as an IC50, which is the drug concentration required to inhibit cell proliferation (i.e. absorbance at 492 nm) to 50% of that of untreated control cells. The mean IC50 and standard deviation (SD) from multiple tests for each cell line were calculated.
# (§4) The mean IC50 of the BMS-A protein tyrosine kinase inhibitor compound across the 23 human lund cell lines was calculated. […]
# L2987 lung cell line = assay: as above; type: cell-based, human; conditions: L2987 cells
# Procedure: as §1, §2, §3, §4
# H226 lung cell line = assay: as above; type: cell-based, human; conditions: H226 cells
# Procedure: as §1, §2, §3, §4
# H838 lung cell line = assay: as above; type: cell-based, human; conditions: H838 cells
# Procedure: as §1, §2, §3, §4
# H661 lung cell line = assay: as above; type: cell-based, human; conditions: H661 cells
# Procedure: as §1, §2, §3, §4
# NCI-H596 lung cell line = assay: as above; type: cell-based, human; conditions: NCI-H596 cells
# Procedure: as §1, §2, §3, §4
# H441 lung cell line = assay: as above; type: cell-based, human; conditions: H441 cells
# Procedure: as §1, §2, §3, §4
# H522 lung cell line = assay: as above; type: cell-based, human; conditions: H522 cells
# Procedure: as §1, §2, §3, §4
# SW1271 lung cell line = assay: as above; type: cell-based, human; conditions: SW1271 cells
# Procedure: as §1, §2, §3, §4
# SW900 lung cell line = assay: as above; type: cell-based, human; conditions: SW900 cells
# Procedure: as §1, §2, §3, §4
# H2347 lung cell line = assay: as above; type: cell-based, human; conditions: H2347 cells, 72 hours, mean of 4 tests, read-out: Mean IC50 (uM) to BMS-A
# Procedure: as §1, §2, §3, §4
# H1155 lung cell line = assay: as above; type: cell-based, human; conditions: H1155 cells, 72 hours, mean of 3 tests, read-out: Mean IC50 (uM) to BMS-A
# Procedure: as §1, §2, §3, §4
# H23 lung cell line = assay: as above; type: cell-based, human; conditions: H23 cells, 72 hours, mean of 4 tests, read-out: Mean IC50 (uM) to BMS-A
# Procedure: as §1, §2, §3, §4
# [1] = tested on: panel of twenty-three human lung cell lines; assay: In vitro cytotoxicity assay (MTS), whole panel; type: cell-based; conditions: across the 23 lung cell lines
# Procedure: as §1, §2, §3, §4
# A549 cells = assay: Drug (BMS-A) treatment of A549 cells and expression profiling (HG-U133 arrays); type: cell-based, human; conditions: A549, 0.4 μM, 4 and 24 hours
# Procedure: To identify polynucleotides regulated by a protein tyrosine kinase inhibitor compound, e.g., BMS-A, a lung cell line A549 was treated with or without the BMS-A compound (0.4 μM) in 0.1% DMSO for 4 and 24 hours. Expression profiling was performed, and the data were analyzed using GeneChip® Expression Analysis software MAS 5.0 (Affymetrix, Santa Clara, Calif.). The polynucleotide expression of a cell line treated with drug was compared using pair-wise analysis to the polynucleotide expression of the cell line without drug treatment. A change in p-value was calculated, indicating an increase, decrease or no change in polynucleotide expression. When the p-value was less than 0.0025, the change was considered significant. Duplicated experiments were performed, and analysis of 4 cross comparisons were performed.
# The lung cells were grown under standard cell culture conditions: RPMI 1640 supplemented to contain 10% fetal bovine serum, 100 IU/ml penicillin, […] streptomycin, 2 mM L-glutamine and 10 mM Hepes (all from GibcoBRL, Rockville, Md.). RNA was isolated from the cultured cells, either treated or untreated with drug (i.e., the protein tyrosine kinase inhibitor compound) at 50-70% confluence using the RNeasy™ kits commercially available from Qiagen, Valencia, Calif. The quality of the RNA was assessed by measuring the 28s:18s ribosomal RNA ratio using an Agilent 2100 bioanalyzer (Agilent Technologies, Rockville, Md.). The concentration of total RNA was determined spectrophotometrically. 10 μg of total RNA from each cell line was used to prepare biotinylated probe according to the Affymetrix Genechip® Expression Analysis Technical Manual, 2001. Targets were hybridized to Affymetrix high density oligonucleotide array human HG-U133 set chips (Affymetrix, Santa Clara, Calif.). The arrays were then washed and stained using the GeneChip® Fluidics station according to the manufacture's instructions (Affymetrix Genechip® Technical Manual, 2001). The HG-U133 set contains 2 Genechip® arrays, which contain approximately 45,000 probe sets representing more than 39,000 transcripts derived from approximately 33,000 well-substantiated human polynucleotides.
# A549 cells were seeded in a 10 cm^2 culture plate in cell culture medium as described herein and were cultured for 24 hours at 37° C. The medium was then changed to medium containing drug (0.4 μM BMS-A compound in 0.1% DMSO, Sigma); the cells were incubated for 4 hour or 24 hours, and then lysed for RNA isolation. The expression profiling was performed as described above and data were analyzed using GeneChip® Expression Analysis software MAS 5.0 (Affymetrix, Santa Clara, Calif.). The expression data of a drug treated cell line was compared pair-wise to data from the same cell line untreated with drug. A change in p-value was calculated, indicating an increase, decrease or no change in polynucleotide expression. When the p-value was less than 0.0025, the change was considered to be significant. This analysis was performed for duplicated experiments
# SK-MES-1 lung cell line = assay: In vitro cytotoxicity assay (MTS), IC50 determination; conditions: SK-MES-1 cells
# Procedure: as §1, §2, §3, §4
# [2] = MTS, 72 hours, mean of 4 tests, read-out: Mean IC50 (uM) to BMS-A
# [3] = IC50 relative to mean IC50 of all 23 cell lines
# [4] = MTS, 72 hours, mean of 3 tests, read-out: Mean IC50 (uM) to BMS-A
# [5] = MTS, 72 hours, mean of 2 tests, read-out: Mean IC50 (uM) to BMS-A
smiles,measurement,setting,value
"Cc1nc(Nc2ncc(C(=O)Nc3c(C)cccc3Cl)s2)cc(N2CCN(CCO)CC2)n1 [BMS-A, N-(2-chloro-6-methylphenyl)-2-[[6-[4-(2-hydroxyethyl)-1-piperazinyl]-2-methyl-4-pyrimidinyl]amino]-5-thiazolecarboxamide]",IC50,Sk-LU-1 lung cell line; [2],0.014 µM
same,Classification,Sk-LU-1 lung cell line; [3],Sensitive (cell lines having an IC50 below the mean IC50 were defined as sensitive to the compound)
same,IC50,L2987 lung cell line; [2],0.037 µM
same,Classification,L2987 lung cell line; [3],Sensitive (cell lines having an IC50 below the mean IC50 were defined as sensitive to the compound)
same,IC50,H226 lung cell line; [4],0.058 µM
same,Classification,H226 lung cell line; [3],Sensitive (cell lines having an IC50 below the mean IC50 were defined as sensitive to the compound)
same,IC50,H838 lung cell line; [2],0.072 µM
same,Classification,H838 lung cell line; [3],Sensitive (cell lines having an IC50 below the mean IC50 were defined as sensitive to the compound)
same,IC50,H661 lung cell line; [2],0.123 µM
same,Classification,H661 lung cell line; [3],Sensitive (cell lines having an IC50 below the mean IC50 were defined as sensitive to the compound)
same,IC50,NCI-H596 lung cell line; [5],0.124 µM
same,Classification,NCI-H596 lung cell line; [3],Sensitive (cell lines having an IC50 below the mean IC50 were defined as sensitive to the compound)
same,IC50,H441 lung cell line; [2],0.141 µM
same,Classification,H441 lung cell line; [3],Sensitive (cell lines having an IC50 below the mean IC50 were defined as sensitive to the compound)
same,IC50,H522 lung cell line; [4],0.215 µM
same,Classification,H522 lung cell line; [3],Sensitive (cell lines having an IC50 below the mean IC50 were defined as sensitive to the compound)
same,IC50,SW1271 lung cell line; [5],0.242 µM
same,Classification,SW1271 lung cell line; [3],Sensitive (cell lines having an IC50 below the mean IC50 were defined as sensitive to the compound)
same,IC50,SW900 lung cell line; [4],0.507 µM
same,Classification,SW900 lung cell line; [3],Sensitive (cell lines having an IC50 below the mean IC50 were defined as sensitive to the compound)
same,IC50,H2347 lung cell line,≥ 1.02 µM
same,IC50,H1155 lung cell line,≥ 1.02 µM
same,IC50,H23 lung cell line,≥ 1.02 µM
same,variation in the IC50 values among the twenty-three lung cell lines,[1],> 100 fold
same,Modulated by BMS-A,A549 cells; Gene No. 12 peroxisomal biogenesis factor 6 (NM_000287),Yes
same,Modulated by BMS-A,"A549 cells; Gene No. 24 cysteine-rich, angiogenic inducer, 61 (NM_001554)",Yes
same,Modulated by BMS-A,A549 cells; Gene No. 26 fibroblast growth factor 2 (basic) (NM_002006),Yes
same,Modulated by BMS-A,A549 cells; Gene No. 35 polymerase I and transcript release factor (NM_012232),Yes
same,Modulated by BMS-A,"A549 cells; Gene No. 39 ESTs, Weakly similar to hypothetical protein FLJ20489 (AI004009)",Yes
same,Modulated by BMS-A,A549 cells; Gene No. 45 Rho GDP dissociation inhibitor (GDI) beta (NM_001175),Yes
same,Modulated by BMS-A,A549 cells; Gene No. 47 FOS-like antigen 1 (NM_005438),Yes
same,Modulated by BMS-A,"A549 cells; Gene No. 58 collagen, type VI, alpha 1 (NM_001848)",Yes
same,Modulated by BMS-A,A549 cells; Gene No. 64 KIAA1237 protein (AI148659),Yes
same,Modulated by BMS-A,"A549 cells; Gene No. 69 a disintegrin-like and metalloprotease (reprolysin type) with thrombospondin type 1 motif, 1 (NM_006988)",Yes
same,Modulated by BMS-A,A549 cells; Gene No. 72 serum-inducible kinase (NM_006622),Yes
same,Modulated by BMS-A,A549 cells; Gene No. 90 hypothetical protein FLJ20607 (NM_017899),Yes
same,Modulated by BMS-A,A549 cells; Gene No. 98 germ cell specific Y-box binding protein (NM_015982),Yes
same,Modulated by BMS-A,A549 cells; Gene No. 105 J domain containing protein 1 (NM_021800),Yes
same,Modulated by BMS-A,"A549 cells; Gene No. 110 inhibitor of DNA binding 2, dominant negative helix-loop-helix protein (NM_002166)",Yes
same,Modulated by BMS-A,A549 cells; Gene No. 115 neuronal cell adhesion molecule (NM_005010),Yes
same,Classification,SK-MES-1 lung cell line; [3],Sensitive (cell lines having an IC50 below the mean IC50 were defined as sensitive to the compound)
same,IC50,"SK-MES-1 lung cell line; read-out: Mean IC50 (uM) to BMS-A, MTS, 72 hours, mean of 3 tests",0.151 µM
